# Results from publication PMC8658016, “Identification of New Compounds with Anticonvulsant and Antinociceptive Properties in a Group of 3-substituted (2,5-dioxo-pyrrolidin-1-yl)(phenyl)-Acetamides” (International Journal of Molecular Sciences, 2021).
# Where two headings read alike, the source gives them in different places.
# Columns and labels:
# [1] = test system: mice; test: Subcutaneous pentylenetetrazole (scPTZ) seizure test; assay type: in vivo, mouse; conditions: mice i.p.; for ED50: Mus musculus, ip, 95% confidence interval in parentheses; for protection in the scPTZ test / scPTZ screening: number of mice protected / number of mice tested: 100 mg/kg, 0.5 h
# [2] = in vivo; conditions: male, CD-1, mouse, ip
# [3] = test system: mice; test: Maximal electroshock seizure (MES) test; assay type: in vivo, mouse; conditions: mice i.p.; for ED50: Mus musculus, ip, 95% confidence interval in parentheses; for MES screening: number of mice protected / number of mice tested / protection in the MES test: 100 mg/kg, 0.5 h
# [4] = test system: mice; test: Psychomotor 6 Hz (32 mA) seizure test; assay type: in vivo, mouse; conditions: mice i.p.; for ED50: Mus musculus, ip, 95% confidence interval in parentheses; for 6 Hz (32 mA) screening: number of mice protected / number of mice tested / protection in the 6 Hz (32 mA) test: 100 mg/kg, 0.5 h
# [5] = molecular target: T1, TRPV1 (VR1) (h) (Homo sapiens, UniProt Q8NER1); test: TRPV1 (VR1) functional assay, antagonist effect; assay type: cell-based; conditions: HEK293, human recombinant HEK-293 cells, read-out: % Inhibition of Control Agonist Response, TRPV1 (VR1) (h) (antagonist effect)
# T1 construct: Cerep Laboratories / Eurofins Panlabs (contract assay)
# T1 sequence (Q8NER1 whole entry): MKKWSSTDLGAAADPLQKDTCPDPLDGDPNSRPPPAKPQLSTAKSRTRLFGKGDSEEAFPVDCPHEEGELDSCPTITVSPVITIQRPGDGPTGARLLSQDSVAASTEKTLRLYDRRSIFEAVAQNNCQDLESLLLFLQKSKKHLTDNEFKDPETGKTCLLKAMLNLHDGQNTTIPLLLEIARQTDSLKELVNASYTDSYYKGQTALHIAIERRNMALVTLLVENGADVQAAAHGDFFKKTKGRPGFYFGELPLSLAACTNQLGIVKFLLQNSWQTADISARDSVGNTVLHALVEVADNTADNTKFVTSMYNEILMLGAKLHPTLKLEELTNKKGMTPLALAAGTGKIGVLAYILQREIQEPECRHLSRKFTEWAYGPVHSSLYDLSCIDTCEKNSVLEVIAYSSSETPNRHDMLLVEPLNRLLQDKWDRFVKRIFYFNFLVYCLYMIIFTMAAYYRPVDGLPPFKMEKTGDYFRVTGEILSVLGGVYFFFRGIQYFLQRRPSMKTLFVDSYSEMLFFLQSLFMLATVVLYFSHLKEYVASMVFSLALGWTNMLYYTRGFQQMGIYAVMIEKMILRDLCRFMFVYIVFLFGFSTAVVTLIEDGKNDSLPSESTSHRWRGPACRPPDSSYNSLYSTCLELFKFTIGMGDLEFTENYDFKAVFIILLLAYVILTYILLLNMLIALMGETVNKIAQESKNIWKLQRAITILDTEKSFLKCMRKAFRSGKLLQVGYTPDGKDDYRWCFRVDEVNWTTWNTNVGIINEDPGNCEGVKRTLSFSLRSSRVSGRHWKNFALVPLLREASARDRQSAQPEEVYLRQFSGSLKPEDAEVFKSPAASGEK
# [6] = test system: TTX-sensitive Na+ channel; test: Radioligand binding, TTX-sensitive Na+ channel; conditions: rat cerebral cortex
# [7] = test system: Cav1.2 channel (dihydropyridine site, antagonist radioligand); test: Radioligand binding, Cav1.2 channel (dihydropyridine site); conditions: rat cerebral cortex
# [8] = molecular target: Cav1.2 (h) calcium ion channel (Homo sapiens, UniProt Q13936); test: Cav1.2 calcium ion channel cell based antagonist calcium flux assay; conditions: HEK293, read-out: % Inhibition of Control Agonist Response, Cav1.2 (h) calcium ion channel cell based antagonist calcium flux assay
# Chain of Cav1.2 (h) calcium ion channel (Q13936 whole entry): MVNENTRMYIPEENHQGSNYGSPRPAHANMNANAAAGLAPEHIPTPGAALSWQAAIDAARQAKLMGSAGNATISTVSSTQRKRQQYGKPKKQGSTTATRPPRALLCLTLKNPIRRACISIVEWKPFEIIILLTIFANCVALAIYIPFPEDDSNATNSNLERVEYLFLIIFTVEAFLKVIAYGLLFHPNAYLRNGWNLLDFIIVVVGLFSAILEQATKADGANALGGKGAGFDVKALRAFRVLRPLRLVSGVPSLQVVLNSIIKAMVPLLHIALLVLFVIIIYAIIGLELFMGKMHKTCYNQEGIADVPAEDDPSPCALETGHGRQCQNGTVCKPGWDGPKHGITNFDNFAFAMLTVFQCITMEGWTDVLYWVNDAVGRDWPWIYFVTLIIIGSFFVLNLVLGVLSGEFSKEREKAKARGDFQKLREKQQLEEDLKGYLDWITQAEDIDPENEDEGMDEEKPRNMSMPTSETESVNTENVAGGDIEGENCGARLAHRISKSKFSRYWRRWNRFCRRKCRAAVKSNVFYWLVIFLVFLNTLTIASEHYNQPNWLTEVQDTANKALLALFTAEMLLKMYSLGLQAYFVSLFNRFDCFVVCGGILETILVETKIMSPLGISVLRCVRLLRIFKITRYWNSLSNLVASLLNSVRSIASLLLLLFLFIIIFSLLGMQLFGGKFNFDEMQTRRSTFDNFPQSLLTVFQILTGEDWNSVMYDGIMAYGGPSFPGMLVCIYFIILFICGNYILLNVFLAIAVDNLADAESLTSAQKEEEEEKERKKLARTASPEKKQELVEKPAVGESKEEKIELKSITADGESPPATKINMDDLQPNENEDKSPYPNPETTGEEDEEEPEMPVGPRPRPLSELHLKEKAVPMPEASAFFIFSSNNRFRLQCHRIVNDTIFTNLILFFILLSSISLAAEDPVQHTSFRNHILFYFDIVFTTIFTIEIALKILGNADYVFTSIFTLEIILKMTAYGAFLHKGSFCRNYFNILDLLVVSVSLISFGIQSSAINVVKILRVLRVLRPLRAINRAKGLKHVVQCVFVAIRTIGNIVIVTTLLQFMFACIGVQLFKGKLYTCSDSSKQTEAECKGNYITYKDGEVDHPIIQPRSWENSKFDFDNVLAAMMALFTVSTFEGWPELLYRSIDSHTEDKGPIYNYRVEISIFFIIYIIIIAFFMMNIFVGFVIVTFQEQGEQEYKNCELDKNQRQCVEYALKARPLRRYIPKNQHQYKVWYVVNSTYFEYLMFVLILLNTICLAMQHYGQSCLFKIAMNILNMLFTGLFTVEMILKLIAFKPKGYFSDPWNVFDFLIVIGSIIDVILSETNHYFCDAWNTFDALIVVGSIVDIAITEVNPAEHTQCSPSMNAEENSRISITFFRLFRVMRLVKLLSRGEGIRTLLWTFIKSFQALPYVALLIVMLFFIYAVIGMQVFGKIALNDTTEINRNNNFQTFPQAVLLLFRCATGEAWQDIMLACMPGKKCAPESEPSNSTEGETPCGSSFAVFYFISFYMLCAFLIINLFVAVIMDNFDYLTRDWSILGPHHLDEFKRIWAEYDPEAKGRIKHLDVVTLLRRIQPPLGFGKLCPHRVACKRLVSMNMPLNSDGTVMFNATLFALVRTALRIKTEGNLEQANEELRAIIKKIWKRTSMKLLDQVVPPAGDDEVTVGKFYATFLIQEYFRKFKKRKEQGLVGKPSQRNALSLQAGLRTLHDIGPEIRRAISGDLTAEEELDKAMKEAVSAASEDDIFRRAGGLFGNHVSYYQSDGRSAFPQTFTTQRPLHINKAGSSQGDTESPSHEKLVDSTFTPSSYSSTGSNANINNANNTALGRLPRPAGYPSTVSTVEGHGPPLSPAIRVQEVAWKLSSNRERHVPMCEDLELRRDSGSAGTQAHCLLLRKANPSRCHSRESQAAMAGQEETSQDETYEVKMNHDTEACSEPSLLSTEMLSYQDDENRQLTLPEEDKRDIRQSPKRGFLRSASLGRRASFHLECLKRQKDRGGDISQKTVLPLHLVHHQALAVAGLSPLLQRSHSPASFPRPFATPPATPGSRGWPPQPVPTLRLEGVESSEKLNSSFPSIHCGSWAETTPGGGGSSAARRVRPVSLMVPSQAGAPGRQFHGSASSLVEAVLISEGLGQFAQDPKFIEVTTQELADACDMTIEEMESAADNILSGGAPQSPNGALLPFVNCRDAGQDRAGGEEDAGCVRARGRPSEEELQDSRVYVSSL
# Chain of Cav1.2 (h) calcium ion channel (Q08289 whole entry partner): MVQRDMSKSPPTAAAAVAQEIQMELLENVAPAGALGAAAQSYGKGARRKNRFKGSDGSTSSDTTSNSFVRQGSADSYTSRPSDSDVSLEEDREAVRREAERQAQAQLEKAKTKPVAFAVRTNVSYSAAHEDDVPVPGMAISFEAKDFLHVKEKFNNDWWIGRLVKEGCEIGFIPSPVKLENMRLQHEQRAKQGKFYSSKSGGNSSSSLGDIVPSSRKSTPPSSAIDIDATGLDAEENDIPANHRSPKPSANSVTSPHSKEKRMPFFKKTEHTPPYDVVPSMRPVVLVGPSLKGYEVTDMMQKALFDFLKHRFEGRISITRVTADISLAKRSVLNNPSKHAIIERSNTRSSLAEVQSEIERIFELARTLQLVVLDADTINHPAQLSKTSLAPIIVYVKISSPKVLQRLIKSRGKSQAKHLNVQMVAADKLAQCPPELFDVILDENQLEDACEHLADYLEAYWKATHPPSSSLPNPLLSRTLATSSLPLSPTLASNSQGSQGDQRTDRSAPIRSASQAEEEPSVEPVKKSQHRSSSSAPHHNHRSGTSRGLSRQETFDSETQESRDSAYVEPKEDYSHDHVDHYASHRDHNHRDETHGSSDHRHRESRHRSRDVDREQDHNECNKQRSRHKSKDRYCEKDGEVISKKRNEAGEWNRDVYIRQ
# Chain of Cav1.2 (h) calcium ion channel (P54289 25-956 partner limits assumed): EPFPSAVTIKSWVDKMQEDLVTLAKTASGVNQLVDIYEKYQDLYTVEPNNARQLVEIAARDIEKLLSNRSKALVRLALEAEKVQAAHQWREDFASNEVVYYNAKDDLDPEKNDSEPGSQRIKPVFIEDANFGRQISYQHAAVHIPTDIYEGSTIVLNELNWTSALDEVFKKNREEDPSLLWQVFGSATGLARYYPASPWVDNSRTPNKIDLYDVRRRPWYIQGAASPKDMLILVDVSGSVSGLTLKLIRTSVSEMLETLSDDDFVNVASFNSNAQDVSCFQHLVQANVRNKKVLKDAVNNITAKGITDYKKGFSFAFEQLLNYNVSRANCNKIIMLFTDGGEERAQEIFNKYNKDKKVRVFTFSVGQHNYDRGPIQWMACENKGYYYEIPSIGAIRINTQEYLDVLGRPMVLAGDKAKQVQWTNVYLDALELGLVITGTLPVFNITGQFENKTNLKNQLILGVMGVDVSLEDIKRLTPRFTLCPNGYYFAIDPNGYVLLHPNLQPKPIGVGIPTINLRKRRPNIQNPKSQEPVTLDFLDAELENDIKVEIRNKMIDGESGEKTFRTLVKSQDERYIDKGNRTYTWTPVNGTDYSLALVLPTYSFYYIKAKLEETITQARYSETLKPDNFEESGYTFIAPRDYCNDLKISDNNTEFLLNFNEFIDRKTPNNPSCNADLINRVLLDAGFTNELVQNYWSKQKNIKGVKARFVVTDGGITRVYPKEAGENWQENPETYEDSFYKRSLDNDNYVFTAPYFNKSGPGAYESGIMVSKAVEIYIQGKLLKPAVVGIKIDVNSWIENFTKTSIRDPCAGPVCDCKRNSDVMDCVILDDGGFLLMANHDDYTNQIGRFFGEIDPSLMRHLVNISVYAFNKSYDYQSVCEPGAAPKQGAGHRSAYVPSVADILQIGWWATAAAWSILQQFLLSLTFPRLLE
# Chain of Cav1.2 (h) calcium ion channel (P54289 957-1103 partner limits assumed): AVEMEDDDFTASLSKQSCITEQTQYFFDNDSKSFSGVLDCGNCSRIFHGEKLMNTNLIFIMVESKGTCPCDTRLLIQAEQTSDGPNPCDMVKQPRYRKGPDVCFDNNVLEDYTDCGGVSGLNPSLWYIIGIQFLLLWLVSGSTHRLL
# [9] = test system: mice; conditions: mice i.p.; cited from earlier work
# [10] = test system: mice; conditions: mice i.p.; cited from earlier work; remark: listed apart in the source
# [11] = test system: mice; conditions: mice i.p.; cited from earlier work; remark: listed apart in the source
# [12] = test system: fast voltage-gated sodium currents in rat prefrontal cortex pyramidal neurons; parameters: method as in PMID 33647745; conditions: 1 µM; p < 0.01, n = 5; cited from earlier work
# [13] = test system: mice; parameters: method as in PMID 32929733; conditions: mice i.p.; cited from earlier work
# [14] = test system: mice; conditions: mice i.p., cited from earlier work
# [15] = test system: mice; parameters: method as in PMID 28934547; conditions: active only in a very high dose; cited from earlier work
SMILES,ED50 [1],scPTZ screening: number of mice protected / number of mice tested [1],TD50 [2],ED50 [3],MES screening: number of mice protected / number of mice tested [3],melting point,ED50 [4],6 Hz (32 mA) screening: number of mice protected / number of mice tested [4],protection in the 6 Hz (32 mA) test [4],also measured
"CN(C)C1CC(=O)N([C@@H](C(=O)N2CCN(c3cccc(C(F)(F)F)c3)CC2)c2ccccc2)C1=O.Cl (stereo partly drawn) [(C1-R)-31, 3-Dimethylamino-1-((R)-oxo-1-phenyl-2-(4-(3-(trifluoromethyl)phenyl)-piperazin-1-yl)ethyl)pyrrolidine-2,5-dione hydrochloride]",65.5 mg/kg,3/4,94.9 mg/kg,57.7 mg/kg,4/4,169.8 to 170.6 °C,50.9 mg/kg,3/4,75%,protection in the scPTZ test [1]: 75%; protection in the MES test [3]: 100%
"CN(C)C1CC(=O)N([C@@H](C(=O)N2CCN(c3cccc(OC(F)(F)F)c3)CC2)c2ccccc2)C1=O.Cl (stereo partly drawn) [(C1-R)-32, 3-Dimethylamino-1-((R)-2-oxo-1-phenyl-2-(4-(3-(trifluoromethoxy)phenyl)piperazin-1-yl)ethyl)pyrrolidine-2,5-dione hydrochloride]",44.9 mg/kg,3/4,72 mg/kg,26.3 mg/kg,4/4,164.8 to 165.7 °C,28.3 mg/kg,3/4,75%,"protection in the scPTZ test [1]: 75%; inhibition at 10 µM ([5]; 10 µM): 8.5%; inhibition at 50 µM ([5]; 50 µM): 44.6%; protection in the MES test [3]: 100%; % Inhibition of Control-Specific Binding, TTX-sensitive Na+ channel ([6]; 10 µM): 33.4%; % Inhibition of Control-Specific Binding, TTX-sensitive Na+ channel ([6]; 50 µM): 101.9%; % Inhibition of Control-Specific Binding, Cav1.2 channel (dihydropyridine site, antagonist radioligand) ([7]; 10 µM): 18.6%; % Inhibition of Control-Specific Binding, Cav1.2 channel (dihydropyridine site, antagonist radioligand) ([7]; 50 µM): 88.9%; inhibition at 10 µM [8]: 38%"
"CN(C)C1CC(=O)N([C@@H](C(=O)N2CCN(c3cccc(SC(F)(F)F)c3)CC2)c2ccccc2)C1=O.Cl (stereo partly drawn) [(C1-R)-33, 3-Dimethylamino-1-((R)-2-oxo-1-phenyl-2-(4-(3-((trifluoromethyl)thio)phenyl)piperazin-1-yl)ethyl)pyrrolidine-2,5-dione hydrochloride]",–,1/4,–,–,1/4,173.2 to 174.7 °C,–,1/4,–,–
"CN(C)C1CC(=O)N([C@H](C(=O)N2CCN(c3cccc(C(F)(F)F)c3)CC2)c2ccccc2)C1=O.Cl (stereo partly drawn) [(C1-S)-31, 3-Dimethylamino-1-((S)-oxo-1-phenyl-2-(4-(3-(trifluoromethyl)phenyl)-piperazin-1-yl)ethyl)pyrrolidine-2,5-dione hydrochloride]",–,1/4,188 mg/kg,–,1/4,169.2 to 170.8 °C,> 130 mg/kg,2/4,–,–
"CNC1CC(=O)N(C(C(=O)N2CCN(c3cccc(C(F)(F)F)c3)CC2)c2ccccc2)C1=O.Cl (stereo not drawn) [Compound 13, 3-(Methylamino)-1-(2-oxo-1-phenyl-2-(4-(3-(trifluoromethyl)phenyl)piperazin-1-yl)ethyl)pyrrolidine-2,5-dione hydrochloride]",85.6 mg/kg,2/4,–,–,1/4,161.2 to 163.4 °C,93.6 mg/kg,2/4,50%,–
"CCN(CC)C1CC(=O)N(C(C(=O)N2CCN(c3cccc(C(F)(F)F)c3)CC2)c2ccccc2)C1=O.Cl (stereo not drawn) [Compound 15, 3-(Diethylamino)-1-(2-oxo-1-phenyl-2-(4-(3-(trifluoromethyl)phenyl)piperazin-1-yl)ethyl)pyrrolidine-2,5-dione hydrochloride]",–,1/4,247 mg/kg,77.5 mg/kg,4/4,142.2 to 143.1 °C,80.4 mg/kg,3/4,75%,protection in the MES test [3]: 100%
"Cl.O=C(C(c1ccccc1)N1C(=O)CC(N2CCOCC2)C1=O)N1CCN(c2cccc(C(F)(F)F)c2)CC1 (stereo not drawn) [Compound 16, 3-Morpholino-1-(2-oxo-1-phenyl-2-(4-(3-(trifluoromethyl)phenyl)piperazin-1-yl)ethyl)pyrrolidine-2,5-dione hydrochloride]",–,1/4,–,–,0/4,146.2 to 147.5 °C,–,0/4,–,–
"CN(C)C1CC(=O)N(C(C(=O)N2CCN(c3cccc(OC(F)(F)F)c3)CC2)c2ccccc2)C1=O.Cl (stereo not drawn) [Compound 17, 3-Dimethylamino-1-(2-oxo-1-phenyl-2-(4-(3-(trifluoromethoxy)phenyl)piperazin-1-yl)ethyl)pyrrolidine-2,5-dione hydrochloride]",31.3 mg/kg,3/4,69.7 mg/kg,33.3 mg/kg,3/4,152.3 to 153.5 °C,28.2 mg/kg,2/4,50%,protection in the scPTZ test [1]: 75%; protection in the MES test [3]: at least 75%
"CN(C)C1CC(=O)N(C(C(=O)N2CCN(c3cccc(SC(F)(F)F)c3)CC2)c2ccccc2)C1=O.Cl (stereo not drawn) [Compound 18, 3-Dimethylamino-1-(2-oxo-1-phenyl-2-(4-(3-((trifluoromethyl)thio)phenyl)piperazin-1-yl)ethyl)pyrrolidine-2,5-dione hydrochloride]",–,1/4,–,–,1/4,170.1 to 171.5 °C,–,1/4,–,–
"CCC1(C)CC(=O)NC1=O (stereo not drawn) [ETX, ethosuximide, reference compound]",140 mg/kg,–,–,–,–,–,> 200 mg/kg,–,–,–
O=C([C@@H](c1ccccc1)N1C(=O)CCC1=O)N1CCN(c2cccc(C(F)(F)F)c2)CC1 [II],–,–,–,–,–,–,–,–,–,ED50 scPTZ [9]: 54.8 (43.5–69.1) mg/kg; ED50 MES [10]: 36.0 (31.4–41.2) mg/kg; ED50 6 Hz (32 mA) [11]: 39.2 (31.6–48.6) mg/kg; maximal sodium current amplitude normalized to control (1.0) [12]: 0.75 ± 0.04
O=C(C(c1ccccc1)N1C(=O)CCC1=O)N1CCN(c2cccc(C(F)(F)F)c2)CC1 (stereo not drawn) [I],–,–,–,–,–,–,–,–,–,ED50 scPTZ [9]: 59.4 (37.5–94.1) mg/kg; ED50 MES [10]: 23.7 (18.4–31.2) mg/kg; ED50 6 Hz (44 mA) [13]: 73.2 (57.4–93.4) mg/kg; ED50 6 Hz (32 mA) [11]: 22.4 (17.4–28.8) mg/kg; TD50 (rotarod test) ([14]; Table 2): 195.7 (132.7–288.6) mg/kg; TD50 (rotarod test) [14]: 195.7 (132.7–288.6) mg/kg
"COC[C@@H](NC(C)=O)C(=O)NCc1ccccc1 [LCS, lacosamide]",–,–,–,–,–,–,–,–,–,ED50 6 Hz (44 mA) [13]: 6.9 (5.4–8.6) mg/kg
"CC[C@@H](C(N)=O)N1CCCC1=O [LEV, levetiracetam, reference compound]",–,–,> 500 mg/kg,> 500 mg/kg,–,–,–,–,–,ED50 6 Hz (44 mA) [13]: >500 mg/kg; TD50 (rotarod test) ([14]; Table 2): >500 mg/kg
"CCCC(CCC)C(=O)O [VPA, valproic acid, reference compound]",239 mg/kg,–,–,–,–,–,–,–,–,dose active in the capsaicin test [15]: 200 mg/kg
